Measured values: patent US8273754B2, “Substituted 1H-pyrazolo[3,4-D]pyrimidine-6-amine compounds” (ArQule, Inc., priority 2008, dated 2012)
Like-named read-outs stand apart in the source and are kept apart here.

Test system: cancer cells
Test: MTS cell growth inhibition assay (72 hours)
Format: cell-based
Method in brief: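 Cells in DMEM with 1% FBS, seeded 18 h, then compound-treated 72 h at 37 °C. Viability by MTS/PMS for 4 h, formazan absorbance at 492 nm; IC50 taken as concentration giving 50% absorbance drop, activity banded by percent inhibition.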

[1] = Homo sapiens, DLD-1, 72 h, DLD-1 cells, read-out: DLD-1 MTS 72 hr at 10 μM
[2] = Homo sapiens, KATO III, 72 h, KATO III cells, read-out: KATO III MTS 72 hr at 10 μM
[3] = Homo sapiens, MDA-MB-231, 72 h, MDA-MB-231 cells, read-out: MDA-MB-231 MTS 72 hr at 10 μM
[4] = Homo sapiens, NCI-H1299, 72 h, NCI-H1299 cells, read-out: NCI-H1299 MTS 72 hr at 10 μM
[5] = PaCa-2, 72 h, PACA-2 cells, read-out: PACA-2 MTS 72 hr at 10 μM

Measured: inhibition at 10 µM

Nc1nc(NC2Cc3ccccc3N(S(=O)(=O)c3ccc(C(F)(F)F)cc3)C2)c2cn[nH]c2n1 (stereo not shown) [Compound 44, N4-(1-(4-(trifluoromethyl)phenylsulfonyl)-1,2,3,4-tetrahydroquinolin-3-yl)-1H-pyrazolo[3,4-d]pyrimidine-4,6-diamine]
< 50%: [1] | [2] | [3] | [4] | [5]

Nc1nc(NC2Cc3ccccc3N(S(=O)(=O)c3cc(C(F)(F)F)ccc3Cl)C2)c2cn[nH]c2n1 (stereo not shown) [Compound 66, N4-(1-(2-chloro-5-(trifluoromethyl)phenylsulfonyl)-1,2,3,4-tetrahydroquinolin-3-yl)-1H-pyrazolo[3,4-d]pyrimidine-4,6-diamine]
< 50%: [1] | [2] | [3] | [4] | [5]

COc1ccc(CN2CC(Nc3nc(N)nc4[nH]ncc34)Cc3ccccc32)cc1OC1CCCC1 (stereo not shown) [Compound 162, N4-{1-[3-(cyclopentyloxy)-4-methoxybenzyl]-1,2,3,4-tetrahydroquinolin-3-yl}-1H-pyrazolo[3,4-d]pyrimidine-4,6-diamine]
< 50%: [1] | [2] | [3] | [4] | [5]

Nc1nc(NC2Cc3ccccc3N(C(=O)Cc3cccc4ccccc34)C2)c2cn[nH]c2n1 (stereo not shown) [Compound 98, 1-(3-(6-amino-1H-pyrazolo[3,4-d]pyrimidin-4-ylamino)-3,4-dihydroquinolin-1(2H)-yl)-2-(naphthalen-1-yl)ethanone]
< 50%: [1] | [2] | [3] | [4] | [5]

Nc1nc(NC2Cc3ccccc3N(C(=O)Nc3ccccc3Cl)C2)c2cn[nH]c2n1 (stereo not shown) [Compound 118, 3-(6-amino-1H-pyrazolo[3,4-d]pyrimidin-4-ylamino)-N-(2-chlorophenyl)-3,4-dihydroquinoline-1(2H)-carboxamide]
< 50%: [1] | [2] | [3] | [4] | [5]

Cc1cccc(C(=O)N2CC(Nc3nc(N)nc4[nH]ncc34)Cc3ccccc32)c1 (stereo not shown) [Compound 82, (3-(6-amino-1H-pyrazolo[3,4-d]pyrimidin-4-ylamino)-3,4-dihydroquinolin-1(2H)-yl)(m-tolyl)methanone]
< 50%: [1] | [2] | [3] | [4] | [5]

COc1ccc(CCNC(=O)N2CC(Nc3nc(N)nc4[nH]ncc34)Cc3ccccc32)cc1OC (stereo not shown) [Compound 109, 3-(6-amino-1H-pyrazolo[3,4-d]pyrimidin-4-ylamino)-N-(3,4-dimethoxyphenethyl)-3,4-dihydroquinoline-1(2H)-carboxamide]
< 50%: [1] | [2] | [3] | [4] | [5]

Nc1nc(NC2CCN(S(=O)(=O)c3ccc4c(c3)OCCO4)c3ccccc3C2)c2cn[nH]c2n1 (stereo not shown) [Compound 165, N4-[1-(2,3-dihydro-1,4-benzodioxin-6-ylsulfonyl)-2,3,4,5-tetrahydro-1H-1-benzazepin-4-yl]-1H-pyrazolo[3,4-d]pyrimidine-4,6-diamine]
< 50%: [1] | [2] | [3] | [4] | [5]
